Data: patent US8563714B2, “Bridged spiro [2.4] heptane derivatives as ALX receptor and/or FPRL2 agonists” (Actelion Pharmaceuticals Ltd., priority 2009, dated 2013)

Tests used:
human FPRL2 = molecular target: T1, human FPRL2 (Homo sapiens, UniProt P25089); assay: Intracellular calcium measurements (FLIPR), agonistic activity in HEK293-hFPRL2-Gα16 cells; assay type: cell-based; settings: Fluo-4 calcium FLIPR, normalized to GLY14-Humanin 100 nM
T1 construct: expressed in transfected cells; host or cells: HEK293 (HEK293-hFPRL2-Gα16)
T1 sequence (P25089 1-353): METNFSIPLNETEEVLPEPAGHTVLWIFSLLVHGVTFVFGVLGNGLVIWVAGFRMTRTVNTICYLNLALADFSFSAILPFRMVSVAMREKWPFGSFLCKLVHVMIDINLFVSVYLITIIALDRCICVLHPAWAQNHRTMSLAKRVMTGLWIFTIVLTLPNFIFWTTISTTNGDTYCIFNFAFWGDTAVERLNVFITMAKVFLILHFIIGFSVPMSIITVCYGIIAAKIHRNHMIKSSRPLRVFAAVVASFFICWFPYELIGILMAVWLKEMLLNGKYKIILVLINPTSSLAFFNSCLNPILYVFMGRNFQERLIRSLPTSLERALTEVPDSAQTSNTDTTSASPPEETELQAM
Method: (§1) The ALX receptor and FPRL2 agonistic activities of the compounds of formula (I) are determined in accordance with the following experimental method.
(§2) Intracellular Calcium Measurements:
Cells expressing recombinant human FPRL2 and the G-protein Gα16 (HEK293-hFPRL2-Gα16) were grown to 80% confluency in Growing Medium (GM). […] Stock solutions of test compounds were made up at a concentration of 10 mM in DMSO, and serially diluted in AB to concentrations required for activation dose response curves. Gly14-Humanin (Humanin peptide with replacement of Serine by Glycine at position 14, Phoenix Peptides) was used as a reference agonist. FLIPR384 or FLIPR Tetra instruments (Molecular Devices) were operated according to the manufacturer's standard instructions, adding 4 μl of test compound dissolved at 10 mM in DMSO and diluted prior to the experiment in assay buffer to obtain the desired final concentration. Changes in fluorescence were monitored before and after the addition of test compounds at lex=488 nm and lem=540 nm. Emission peak values above base level after compounds addition were exported after base line subtraction. Values were normalized to high-level control (GLY14-Humanin compound, 100 nM final concentration) after subtraction of the base line value (AB addition).

human ALX receptor = molecular target: T2, human ALX receptor (Homo sapiens, UniProt P25090); assay: Intracellular calcium measurements (FLIPR), agonistic activity in HEK293-hALXR-Gα16 cells; assay type: cell-based; settings: Fluo-4 calcium FLIPR, normalized to WKYMVm 10 nM
T2 construct: expressed in transfected cells; host or cells: HEK293 (HEK293-hALXR-Gα16)
T2 sequence (P25090 1-351): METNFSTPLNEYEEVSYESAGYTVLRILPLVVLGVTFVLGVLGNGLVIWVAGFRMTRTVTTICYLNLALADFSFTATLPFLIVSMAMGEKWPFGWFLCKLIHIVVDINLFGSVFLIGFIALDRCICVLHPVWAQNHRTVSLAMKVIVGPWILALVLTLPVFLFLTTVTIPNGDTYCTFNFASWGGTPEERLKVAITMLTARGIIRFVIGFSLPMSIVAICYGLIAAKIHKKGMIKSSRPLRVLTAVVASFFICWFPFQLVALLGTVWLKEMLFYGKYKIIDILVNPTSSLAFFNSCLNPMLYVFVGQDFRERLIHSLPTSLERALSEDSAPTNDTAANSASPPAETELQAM
Method: as §1, §2
Cells expressing recombinant human ALX receptor and the G-protein Gα16 (HEK293-hALXR-Gα16) were grown to 80% confluency in Growing Medium (GM). Cells were detached from culture dishes with a cell dissociation buffer (Invitrogen, 13151-014), and collected by centrifugation at 1,000 rpm at rt for 5 min in Assay Buffer (AB) (equal parts of Hank's BSS (Gibco, 14065-049) and DMEM without Phenol Red (Gibco, 11880-028)). After 60 min incubation at 37° C. under 5% CO2 in AB supplemented with 1 μM Fluo-4 (AM) (Invitrogen, F14202), and 20 mM HEPES (Gibco, 15630-056), the cells were washed and resuspended in AB. They were then seeded onto 384-well FLIPR assay plates (Greiner, 781091) at 50′000 cells in 70 μl per well and sedimented by centrifugation at 1,000 rpm for 1 min. Stock solutions of test compounds were made up at a concentration of 10 mM in DMSO, and serially diluted in AB to concentrations required for activation dose response curves. WKYMVm (Phoenix Peptides) was used as a reference agonist. FLIPR384 or FLIPR Tetra instruments (Molecular Devices) were operated according to the manufacturer's standard instructions, adding 4 μl of test compound dissolved at 10 mM in DMSO and diluted prior to the experiment in assay buffer to obtain the desired final concentration. Changes in fluorescence were monitored before and after the addition of test compounds at lex=488 nm and lem=540 nm. Emission peak values above base level after compounds addition were exported after base line subtraction. Values were normalized to high-level control (WKYMVm compound, 10 nM final concentration) after subtraction of the base line value (AB addition).

SMILES	EC50 (human FPRL2) [nM]	EC50 (human ALX receptor) [nM]
O=C(NCCCCN1CCCC1)[C@H]1[C@H](C(=O)Nc2ccc(Br)cc2)[C@@H]2C=C[C@H]1C21CC1 [Example 2, (5R)—N^5-(4-Bromophenyl)-(6R)—N^6-(4-pyrrolidin-1-yl-butyl)-(4S,7R)-[4,7-ethenylene-spiro[2.4]heptane]-5,6-dicarboxamide]	46	0.1
NC(=O)CCNC(=O)[C@H]1[C@H](C(=O)Nc2ccc(Br)cc2)[C@@H]2CC[C@H]1C21CC1 (racemic) [Example 102, (5R*)—N^5-(4-Bromophenyl)-(6R*)—N^6-(2-carbamoyl-ethyl)-(4S*,7R*)-[4,7-ethylene-spiro[2.4]heptane]-5,6-dicarboxamide]	> 25000	0.46
CC(C)(CNC(=O)OC(C)(C)C)CNC(=O)[C@H]1[C@H](C(=O)Nc2ccc(Br)cc2)[C@@H]2C=C[C@H]1C21CC1 (racemic) [Example 71, (5R*)—N^5-(4-Bromophenyl)-(6R*)—N^6-(2,2-dimethyl-3-N-tert-butoxycarbonyl-amino-propyl)-(4S*,7R*)-[4,7-ethenylene-spiro[2.4]heptane]-5,6-dicarboxamide]	5550	63
CCN(CC)CCN(CC)C(=O)[C@H]1[C@H](C(=O)Nc2ccc(Br)cc2)[C@@H]2C=C[C@H]1C21CC1 (racemic) [Example 39, (5R*)—N^5-(4-Bromophenyl)-(6R*)—N^6-ethyl-N^6-(2-diethylamino-ethyl)-(4S*,7R*)-[4,7-ethenylene-spiro[2.4]heptane]-5,6-dicarboxamide]	1540	7.6
CC(C)(C)C1CCC(NC(=O)C2C(C(=O)NCCCCN3CCCC3)C3C=CC2C32CC2)CC1 (stereo not drawn) [Example 342, (5R*)—N^5-(4-tert-Butyl-cyclohexyl)-(6R*)—N^6-(4-pyrrolidino-butyl)-(4S*,7R*)-[4,7-ethenylene-spiro[2.4]heptane]-5,6-dicarboxamide]	100	> 2390
Cc1nc(CC(=O)NC[C@H]2[C@H](C(=O)Nc3ccc(Br)cc3)[C@@H]3C=C[C@H]2C32CC2)c(C)s1 (racemic) [Example 168, (5R*)—N^5-(4-Bromo-phenyl)-(6R*)-6-[(2-(2,5-dimethyl-thiazol-4-yl)-acetylamino)-methyl]-(4S*,7R*)-[4,7-ethenylene-spiro[2.4]heptane]-5-carboxamide]	862	71
Cc1nc(CCNC(=O)C2C(C(=O)Nc3ccc(Br)cc3)C3CCC2C32CC2)[nH]c1C (stereo not drawn) [Example 112, (5R*)—N^5-(4-Bromophenyl)-(6R*)—N^6-(2-(4,5-dimethyl-1H-imidazol-2-yl)-ethyl)-(4S*,7R*)-[4,7-ethylene-spiro[2.4]heptane]-5,6-dicarboxamide]	57	8.3
CC(C)(CN)CNC(=O)[C@H]1[C@H](C(=O)NCc2ccc(Br)cc2)[C@@H]2C=C[C@H]1C21CC1 (racemic) [Example 310, (5R*)—N^5-(4-Bromophenyl-methyl)-(6R*)—N^6-(2,2-dimethyl-3-amino-propyl)-(4S*,7R*)-[4,7-ethenylene-spiro[2.4]heptane]-5,6-dicarboxamide]	466	26
CCN(CC)CCCCNC(=O)[C@H]1[C@H](C(=O)Nc2ccc(Br)cc2)[C@@H]2C=C[C@H]1C21CC1 (racemic) [Example 11, (5R*)—N^5-(4-Bromophenyl)-(6R*)—N^6-(4-(N,N-diethyl-amino)-butyl)-(4S*,7R*)-[4,7-ethenylene-spiro[2.4]heptane]-5,6-dicarboxamide]	329	1

Continued, values first:

EC50 (human FPRL2) [nM]	EC50 (human ALX receptor) [nM]	SMILES
2280	80	O=C(NCC(c1ccccc1)N1CCOCC1)C1C(C(=O)Nc2ccc(Br)cc2)C2C=CC1C21CC1 (mixture of isomers) [Example 77, (5R*)—N^5-(4-Bromophenyl)-(6R*)—N^6-(2-phenyl-2-morpholino-ethyl)-(4S*,7R*)-[4,7-ethenylene-spiro[2.4]heptane]-5,6-dicarboxamide]
446	160	O=C(CCCN1CCCC1)NC[C@H]1[C@H](C(=O)Nc2ccc(Br)cc2)[C@@H]2C=C[C@H]1C21CC1 (racemic) [Example 177, (5R*)—N^5-(4-Bromo-phenyl)-(6R*)-6-[(4-pyrrolidin-1-yl-butanoylamino)-methyl]-(4S*,7R*)-[4,7-ethenylene-spiro[2.4]heptane]-5-carboxamide]
3690	103	CCCCC(=O)NC[C@H]1[C@H](C(=O)Nc2ccc(Br)cc2)[C@@H]2C=C[C@H]1C21CC1 (racemic) [Example 167, (5R*)—N^5-(4-Bromo-phenyl)-(6R*)-6-(pentanoylamino-methyl)-(4S*,7R*)-[4,7-ethenylene-spiro[2.4]heptane]-5-carboxamide]
496	79	CCCCCNC(=O)[C@H]1[C@H](C(=O)NCCCCN2CCCC2)[C@H]2C=C[C@@H]1C21CC1 (racemic) [Example 122, (5R*)—N^5-Pentyl-(6R*)—N^6-(4-pyrrolidin-1-yl-butyl)-(4S*,7R*)-[4,7-ethenylene-spiro[2.4]heptane]-5,6-dicarboxamide]
4270	505	CCCC(=O)NC[C@H]1[C@H](C(=O)Nc2ccc(Br)cc2)[C@@H]2C=C[C@H]1C21CC1 (racemic) [Example 187, (5R*)—N^5-(4-Bromo-phenyl)-(6R*)-6-[(butanoylamino)-methyl]-(4S*,7R*)-[4,7-ethenylene-spiro[2.4]heptane]-5-carboxamide]
372	9970	O=C(NCCCCN1CCCC1)[C@H]1[C@H](C(=O)NCc2cc(C(F)(F)F)ccc2Cl)[C@@H]2C=C[C@H]1C21CC1 (racemic) [Example 364, (5R*)—N^5-(2-Chloro-5-trifluoromethylphenyl-methyl)-(6R*)—N^6-(4-pyrrolidino-butyl)-(4S*,7R*)-[4,7-ethenylene-spiro[2.4]heptane]-5,6-dicarboxamide]
> 25000	146	NC(=O)CCNC(=O)[C@H]1[C@H](C(=O)NCc2ccc(Br)cc2F)[C@@H]2C=C[C@H]1C21CC1 [Example 282, (5R)—N^5-(4-Bromo-2-fluorophenyl-methyl)-(6R)—N^6-(3-amino-3-oxopropyl)-(4S,7R)-[4,7-ethenylene-spiro[2.4]heptane]-5,6-dicarboxamide]
18	13	O=C(NCCCCN1CCCC1)[C@H]1[C@H](C(=O)NCc2ccc(Br)cc2F)[C@@H]2CC[C@H]1C21CC1 [Example 318, (5R)—N^5-(4-Bromo-2-fluorophenyl-methyl)-(6R)—N^6-(4-pyrrolidino-butyl)-(4S,7R)-[4,7-ethylene-spiro[2.4]heptane]-5,6-dicarboxamide]
